Reference: US20260028354A1, “TETRAHYDRONAPHTHALENE DERIVATIVES AS ESTROGEN RECEPTOR DEGRADERS” (REGENT OF THE UNIVERSITY OF MICHIGAN, priority 2022, published 2026)
Like-named read-outs stand apart in the source and are kept apart here.

Tests used:
ERα_LBD (GST) = ERα_LBD (GST) (Homo sapiens (Human), UniProt P03372); experiment: IC50 measurements for binding to ERα_LBD (GST), LanthaScreen TR-FRET competitive binding; details: ERα_LBD (GST) 4 nM, Fluormone ES2 Green tracer, 60 min; read-out: ERα HTRF IC50
Sequence of ERα_LBD (GST) (P03372 311-547): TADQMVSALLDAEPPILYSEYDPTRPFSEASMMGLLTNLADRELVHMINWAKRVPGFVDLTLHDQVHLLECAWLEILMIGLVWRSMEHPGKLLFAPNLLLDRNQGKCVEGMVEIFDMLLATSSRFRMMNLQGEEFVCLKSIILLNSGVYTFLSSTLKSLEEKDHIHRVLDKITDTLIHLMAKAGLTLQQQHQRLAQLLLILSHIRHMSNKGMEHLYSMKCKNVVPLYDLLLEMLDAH
Outline: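 Competitive TR-FRET displacement of Fluormone ES2 Green tracer (3 nM) from GST-tagged human ERα LBD (4 nM) with Tb anti-GST (2 nM), in nuclear receptor buffer K plus 5 mM DTT, 1% DMSO. 60 min at room temperature, dark; 520/495 nm ratio vs log[compound] fitted sigmoidally for IC50.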

ER in MCF-7 cells = ER in MCF-7 cells (Homo sapiens (Human), UniProt P03372); experiment: In-cell Western (ICW) ER degradation assay in MCF-7 cells; format: cell-based; details: for DC50: MCF-7, ER degradation, read-out: MCF7 DC50
Sequence of ER in MCF-7 cells (P03372 whole entry): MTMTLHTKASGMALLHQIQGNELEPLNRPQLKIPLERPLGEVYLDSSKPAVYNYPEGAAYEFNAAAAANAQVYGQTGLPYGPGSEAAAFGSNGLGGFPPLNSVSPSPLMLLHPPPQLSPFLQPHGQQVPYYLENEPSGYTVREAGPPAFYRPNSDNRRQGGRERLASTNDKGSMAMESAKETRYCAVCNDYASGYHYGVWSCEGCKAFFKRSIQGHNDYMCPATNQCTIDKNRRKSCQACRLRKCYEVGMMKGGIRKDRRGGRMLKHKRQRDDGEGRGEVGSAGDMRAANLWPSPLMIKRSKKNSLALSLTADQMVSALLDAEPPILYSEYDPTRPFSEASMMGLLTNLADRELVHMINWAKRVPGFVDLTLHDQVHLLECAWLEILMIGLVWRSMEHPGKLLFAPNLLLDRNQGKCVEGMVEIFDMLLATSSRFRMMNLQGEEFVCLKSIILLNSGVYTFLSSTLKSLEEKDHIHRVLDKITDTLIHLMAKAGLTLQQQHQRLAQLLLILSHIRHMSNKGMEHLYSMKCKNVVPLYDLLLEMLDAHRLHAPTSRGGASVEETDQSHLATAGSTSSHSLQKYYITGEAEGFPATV

ER in T47D cells = ER in T47D cells (Homo sapiens (Human), UniProt P03372); experiment: In-cell Western (ICW) ER degradation assay in T47D cells; format: cell-based; details: for DC50: ER degradation
Sequence of ER in T47D cells (P03372 whole entry): as above

MCF-7 cells = experiment: CellTiter-Glo (CTG) cell proliferation assay in MCF-7 cells; format: cell-based; details: Homo sapiens, MCF7, 144 h, MCF-7 cell proliferation, Day 6
Text: (§1) CellTiter-Glo® (CTG) Assays in MCF-7 and T47D Cell Lines.
(§2) In vitro Assay: MCF-7 and T47D CTG assay

T47D cells = experiment: CellTiter-Glo (CTG) cell proliferation assay in T47D cells; format: cell-based; details: Homo sapiens, 144 h, Day 6
Text: as §1, §2

CRBN/DDB1 = CRBN/DDB1 (Homo sapiens (Human), UniProt Q96SW2); format: binding; details: His tagged CRBN+DDB1, Cy5-labeled Thalidomide probe, one hour; read-out: CRBN HTRF IC50
Sequence of CRBN/DDB1 (Q96SW2 whole entry, species assumed): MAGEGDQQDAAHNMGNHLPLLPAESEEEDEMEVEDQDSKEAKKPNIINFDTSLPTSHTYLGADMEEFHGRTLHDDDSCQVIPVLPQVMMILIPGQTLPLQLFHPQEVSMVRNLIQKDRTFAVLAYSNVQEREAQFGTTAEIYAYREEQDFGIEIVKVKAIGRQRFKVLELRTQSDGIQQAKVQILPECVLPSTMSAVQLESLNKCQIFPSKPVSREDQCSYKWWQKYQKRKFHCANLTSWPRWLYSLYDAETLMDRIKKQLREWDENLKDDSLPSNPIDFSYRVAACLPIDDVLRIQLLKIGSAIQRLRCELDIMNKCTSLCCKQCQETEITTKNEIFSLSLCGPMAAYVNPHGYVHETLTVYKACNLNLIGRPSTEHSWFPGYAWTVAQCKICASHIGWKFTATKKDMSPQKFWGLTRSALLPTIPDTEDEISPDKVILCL
Sequence of CRBN/DDB1 (Q16531 whole entry partner, species assumed): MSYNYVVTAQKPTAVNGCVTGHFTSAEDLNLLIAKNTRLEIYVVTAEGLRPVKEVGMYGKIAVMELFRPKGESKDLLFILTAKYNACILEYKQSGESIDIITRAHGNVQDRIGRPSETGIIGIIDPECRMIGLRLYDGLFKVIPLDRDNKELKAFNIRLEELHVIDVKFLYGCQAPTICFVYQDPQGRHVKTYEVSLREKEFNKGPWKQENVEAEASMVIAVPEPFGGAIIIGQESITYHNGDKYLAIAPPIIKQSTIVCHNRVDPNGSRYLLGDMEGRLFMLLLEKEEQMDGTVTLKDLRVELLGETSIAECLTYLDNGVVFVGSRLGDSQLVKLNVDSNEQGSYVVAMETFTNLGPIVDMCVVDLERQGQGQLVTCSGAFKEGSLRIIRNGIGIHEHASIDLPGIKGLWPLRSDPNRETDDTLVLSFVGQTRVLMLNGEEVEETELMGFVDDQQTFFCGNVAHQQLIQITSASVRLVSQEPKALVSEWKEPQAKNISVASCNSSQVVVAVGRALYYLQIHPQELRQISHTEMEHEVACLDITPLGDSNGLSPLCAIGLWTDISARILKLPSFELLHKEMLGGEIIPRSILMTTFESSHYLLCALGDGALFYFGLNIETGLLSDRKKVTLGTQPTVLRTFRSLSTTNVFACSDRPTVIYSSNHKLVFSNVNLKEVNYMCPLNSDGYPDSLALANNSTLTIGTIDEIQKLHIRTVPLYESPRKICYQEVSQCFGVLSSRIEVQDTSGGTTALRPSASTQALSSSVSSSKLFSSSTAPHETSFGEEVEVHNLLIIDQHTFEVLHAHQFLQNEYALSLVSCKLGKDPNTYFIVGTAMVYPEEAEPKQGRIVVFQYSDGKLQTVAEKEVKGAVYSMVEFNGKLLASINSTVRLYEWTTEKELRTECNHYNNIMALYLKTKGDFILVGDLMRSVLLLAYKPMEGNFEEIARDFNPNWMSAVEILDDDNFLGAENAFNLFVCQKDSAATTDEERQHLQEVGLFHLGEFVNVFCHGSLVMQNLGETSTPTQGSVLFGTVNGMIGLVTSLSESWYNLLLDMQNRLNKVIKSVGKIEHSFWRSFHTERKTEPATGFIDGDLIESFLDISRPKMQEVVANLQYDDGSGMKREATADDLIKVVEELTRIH
Procedure: The binding potency was determined using HTRF assay technology (Perkin Elmer). Compounds were serially diluted in DMSO and […] volume was transferred to white 384-well plate.

[1] = MCF7, MCF-7, maximal ER degradation, 16 hrs treatment, read-out: MCF7 Dmax
[2] = maximal ER degradation, 16 hrs treatment, read-out: T47D Dmax
[3] = MCF7, read-out: MCF7 Dmax, MCF-7, maximal ER degradation, 16 hrs treatment
[4] = read-out: T47D Dmax, T47D, maximal ER degradation, 16 hrs treatment

SMILES	IC50 (ERα_LBD (GST)) [µM]	Dmax (ER in MCF-7 cells; [1]) [%]	DC50 (ER in MCF-7 cells; 16 hrs treatment) [µM]	DC50 (ER in T47D cells; 16 hrs treatment) [µM]	Dmax (ER in T47D cells; [2]) [%]	IC50 (MCF-7 cells) [µM]	IC50 (T47D cells) [µM]	IC50 (CRBN/DDB1) [µM]	Dmax (ER in MCF-7 cells; [3]) [%]	Dmax (ER in T47D cells; [4]) [%]
COc1cc(N2CCC3(CC2)CC(CN2CCC(c4ccc(N[C@@H]5CCC(=O)NC5=O)cc4)CC2)C3)c(F)cc1[C@@H]1c2ccc(O)cc2CC[C@@H]1c1ccccc1 (single isomer, unassigned) [Compound A31]	< 0.01	50 to 75	< 0.001	< 0.001	> 75	0.01 to 0.1	> 0.1			
O=C1CC[C@H](N2Cc3c(ccc4c3OC[C@H]3CN(CC5COC6(C5)CN(c5ccc([C@H]7c8ccc(O)cc8CC[C@H]7c7ccccc7)cc5)C6)CCN43)C2=O)C(=O)N1 (single isomer, unassigned) [Compound A41]	< 0.01	> 75	< 0.001	< 0.001	> 75	< 0.01	< 0.01	< 0.05		
O=C1CC[C@H](N2Cc3cc4c(cc3C2=O)OC[C@@H]2CN(CC3COC5(C3)CN(c3ccc([C@H]6c7ccc(O)cc7CC[C@H]6c6ccccc6)cc3)C5)CCN42)C(=O)N1 (single isomer, unassigned) [Compound A43]	< 0.01	50 to 75	< 0.001	< 0.001	> 75	0.01 to 0.1	0.01 to 0.1	0.05 to 0.5		
COc1cc(N2CCC3(CC2)C[C@H](CN2CCN4c5cc6c(cc5OC[C@@H]4C2)C(=O)N([C@H]2CCC(=O)NC2=O)C6)CO3)ccc1[C@@H]1c2ccc(O)cc2CC[C@@H]1c1ccccc1 (single isomer, unassigned) [Compound A135]	< 0.01	> 75	< 0.001	< 0.001		< 0.01	< 0.01	0.5 to 5		
COc1cc(N2CCC3(CC2)C[C@@H](CN2CCN4c5cc6c(cc5OC[C@@H]4C2)C(=O)N([C@H]2CCC(=O)NC2=O)C6)CO3)ccc1[C@@H]1c2ccc(O)cc2CC[C@@H]1c1ccccc1 (single isomer, unassigned) [Compound A136]	< 0.01	> 75	< 0.001	< 0.001	> 75	< 0.01	< 0.01	0.5 to 5		
COc1cc(N2CCC(CN3CCN4c5cc6c(cc5OC[C@H]4C3)C(=O)N([C@@H]3CCC(=O)NC3=O)C6)CC2)ccc1[C@H]1c2ccc(O)cc2CC[C@H]1c1ccccc1 (stereo in doubt) [Compound A34, (R)-3-((R)-3-((1-(4-((1R,2R)-6-hydroxy-2-phenyl-1,2,3,4-tetrahydronaphthalen-1-yl)-3-methoxyphenyl)piperidin-4-yl)methyl)-8-oxo-1,2,3,4,4a,5,8,10-octahydro-9H-pyrazino[1′,2′: 4,5][1,4]oxazino[2,3-f]isoindol-9-yl)piperidine-2,6-dione]			< 0.001	< 0.001	> 75	< 0.01	< 0.01		> 75	
COc1cc(N2CCC(CN3CCN4c5ccc6c(c5OCC4C3)CN([C@H]3CCC(=O)NC3=O)C6=O)CC2)c(F)cc1[C@@H]1c2ccc(O)cc2CC[C@@H]1c1ccccc1 (stereo in doubt) [Compound A35, (S)-3-((S)-7-((1-(2-fluoro-4-((1S,2S)-6-hydroxy-2-phenyl-1,2,3,4-tetrahydronaphthalen-1-yl)-5-methoxyphenyl)piperidin-4-yl)methyl)-1-oxo-1,3,5,5a,6,7,8,9-oCtahydro-2H-pyrazino[1′,2′: 4,5][1,4]oxazino[2,3-e]isoindol-2-yl)piperidine-2,6-dione]	< 0.01		< 0.001	< 0.001	> 75	0.01 to 0.1	0.01 to 0.1		> 75	
COc1cc(N2CCC3(CC2)CC(CN2CCC4(CC2)COc2c4ccc4c2CN([C@H]2CCC(=O)NC2=O)C4=O)C3)c(F)cc1[C@@H]1c2ccc(O)cc2CC[C@@H]1c1ccccc1 [Compound A100, (S)-3-(1′-((7-(2-fluoro-4-((1S,2S)-6-hydroxy-2-phenyl-1,2,3,4-tetrahydronaphthalen-1-yl)-5-methoxyphenyl)-7-azaspiro[3.5]nonan-2-yl)methyl)-6-oxo-6,8-dihydro-2H,7H-spiro[furo[2,3-e]isoindole-3,4′-piperidin]-7-yl)piperidine-2,6-dione]	< 0.01		< 0.001	< 0.001		< 0.01	< 0.01	< 0.05	> 75	> 75
COc1cc(N2CCC3(CC2)C[C@H](CN2CCN4c5cc6c(cc5OC[C@@H]4C2)C(=O)N([C@H]2CCC(=O)NC2=O)C6)CO3)c(F)cc1[C@@H]1c2ccc(O)cc2CC[C@@H]1c1ccccc1 [Compound A173, (S)-3-((S)-3-(((R)-8-(2-fluoro-4-((1S,2S)-6-hydroxy-2-phenyl-1,2,3,4-tetrahydronaphthalen-1-yl)-5-methoxyphenyl)-1-oxa-8-azaspiro[4.5]decan-3-yl)methyl)-8-oxo-1,2,3,4,4a,5,8,10-octahydro-9H-pyrazino[1′,2′:4,5][1,4]oxazino[2,3-f]isoindol-9-yl)piperidine-2,6-dione]	< 0.01	> 75	< 0.001	< 0.001	> 75	< 0.01	< 0.01			
COc1cc(N2CCC3(CC2)C[C@H](CN2CCN4c5ccc6c(c5OC[C@H]4C2)CN([C@H]2CCC(=O)NC2=O)C6=O)CO3)c(F)cc1[C@@H]1c2ccc(O)cc2CC[C@@H]1c1ccccc1 [Compound A174, (S)-3-((R)-7-(((R)-8-(2-fluoro-4-((1S,2S)-6-hydroxy-2-phenyl-1,2,3,4-tetrahydronaphthalen-1-yl)-5-methoxyphenyl)-1-oxa-8-azaspiro[4.5]decan-3-yl)methyl)-1-oxo-1,3,5,5a,6,7,8,9-octahydro-2H-pyrazino[1′,2′:4,5][1,4]oxazino[2,3-e]isoindol-2-yl)piperidine-2,6-dione]	< 0.01	> 75	< 0.001	< 0.001	> 75	< 0.01	< 0.01			
COc1cc(N2CCC3(CC2)C[C@H](CN2CCC4(CC2)COc2cc5c(cc24)CN([C@H]2CCC(=O)NC2=O)C5=O)CO3)c(F)cc1[C@@H]1c2ccc(O)cc2CC[C@@H]1c1ccccc1 [Compound A175, (S)-3-(1′-(((R)-8-(2-fluoro-4-((1S,2S)-6-hydroxy-2-phenyl-1,2,3,4-tetrahydronaphthalen-1-yl)-5-methoxyphenyl)-1-oxa-8-azaspiro[4.5]decan-3-yl)methyl)-7-oxo-5,7-dihydro-2H,6H-spiro[furo[2,3-f]isoindole-3,4′-piperidin]-6-yl)piperidine-2,6-dione]	< 0.01		< 0.001	< 0.001		< 0.01	< 0.01		> 75	> 75
COc1cc(N2CCC3(CC2)C[C@H](CN2CCC4(CC2)COc2c4ccc4c2CN([C@H]2CCC(=O)NC2=O)C4=O)CO3)c(F)cc1[C@@H]1c2ccc(O)cc2CC[C@@H]1c1ccccc1 [Compound A176]	< 0.01		< 0.001	< 0.001		< 0.01	< 0.01		> 75	> 75
